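Five concentrations, 48 hours, 96-well plates. TGI is the concentration that stops growth completely.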
Key:
Assay in all cases: NCI anticancer screen, dose series, 48 h
LOX IMVI melanoma = test system: LOX IMVI melanoma
ACHN renal = test system: ACHN renal
OVCAR-5 ovarian = test system: OVCAR-5 ovarian
UACC-62 melanoma = test system: UACC-62 melanoma
HCT-15 colon = test system: HCT-15 colon
HCT-116 colon = test system: HCT-116 colon
A498 renal = test system: A498 renal
NCI-H226 lung = test system: NCI-H226 lung
SK-MEL-5 melanoma = test system: SK-MEL-5 melanoma
NCI-H460 lung = test system: NCI-H460 lung
SK-MEL-2 melanoma = test system: SK-MEL-2 melanoma
SF-539 CNS = test system: SF-539 CNS
SF-295 CNS = test system: SF-295 CNS
SK-MEL-28 melanoma = test system: SK-MEL-28 melanoma
UO-31 renal = test system: UO-31 renal
NCI-H23 lung = test system: NCI-H23 lung
SW-620 colon = test system: SW-620 colon
A549 NSCLC = test system: A549 NSCLC
RXF 393 renal = test system: RXF 393 renal
IGROV1 ovarian = test system: IGROV1 ovarian
MALME-3M melanoma = test system: MALME-3M melanoma
HT29 colon = test system: HT29 colon
TK-10 renal = test system: TK-10 renal
OVCAR-8 ovarian = test system: OVCAR-8 ovarian
DLD-1 colon = test system: DLD-1 colon
OVCAR-3 ovarian = test system: OVCAR-3 ovarian
SNB-19 CNS = test system: SNB-19 CNS
SR leukemia = test system: SR leukemia
LXFL 529 NSCLC = test system: LXFL 529 NSCLC
786-0 renal = test system: 786-0 renal
COLO 205 colon = test system: COLO 205 colon
U251 CNS = test system: U251 CNS
SNB-75 CNS = test system: SNB-75 CNS
EKVX NSCLC = test system: EKVX NSCLC
SK-OV-3 ovarian = test system: SK-OV-3 ovarian
SNB-78 CNS = test system: SNB-78 CNS
HCC-2998 colon = test system: HCC-2998 colon
SF-268 CNS = test system: SF-268 CNS
CAKI-1 renal = test system: CAKI-1 renal
KM20L2 colon = test system: KM20L2 colon
DMS 273 small cell lung = test system: DMS 273 small cell lung
KM12 colon = test system: KM12 colon
UACC-257 melanoma = test system: UACC-257 melanoma
HL-60(TB) leukemia = test system: HL-60(TB) leukemia
SN12C renal = test system: SN12C renal
NCI-H522 lung = test system: NCI-H522 lung
RPMI-8226 leukemia = test system: RPMI-8226 leukemia
XF 498 CNS = test system: XF 498 CNS
M19-MEL melanoma = test system: M19-MEL melanoma
CCRF-CEM leukemia = test system: CCRF-CEM leukemia
RXF-631 renal = test system: RXF-631 renal
HOP-92 NSCLC = test system: HOP-92 NSCLC
MOLT-4 leukemia = test system: MOLT-4 leukemia
M14 melanoma = test system: M14 melanoma
HOP-62 NSCLC = test system: HOP-62 NSCLC
OVCAR-4 ovarian = test system: OVCAR-4 ovarian
K-562 leukemia = test system: K-562 leukemia

With `Nc1nc2c(ncn2CCOC(c2ccccc2)P(=O)(O)O)c(=O)[nH]1` (stereo not given) the TGI (LOX IMVI melanoma) was over 100 µM, the TGI (ACHN renal) was over 100 µM and the TGI (OVCAR-5 ovarian) was over 100 µM. For the same compound, the TGI (UACC-62 melanoma) was over 100 µM, the TGI (HCT-15 colon) was over 100 µM and the TGI (HCT-116 colon) was over 100 µM. The TGI (A498 renal) was over 100 µM, the TGI (NCI-H226 lung) was over 100 µM and the TGI (SK-MEL-5 melanoma) was over 100 µM. For the same compound, the TGI (NCI-H460 lung) was over 100 µM, the TGI (SK-MEL-2 melanoma) was over 100 µM and the TGI (SF-539 CNS) was over 100 µM. For the same compound, the TGI (SF-295 CNS) was over 100 µM, the TGI (SK-MEL-28 melanoma) was over 100 µM and the TGI (UO-31 renal) was over 100 µM. It also gave a TGI (NCI-H23 lung) of over 100 µM, a TGI (SW-620 colon) of over 100 µM and a TGI (A549 NSCLC) of over 100 µM. For the same compound, the TGI (RXF 393 renal) was over 100 µM, the TGI (IGROV1 ovarian) was over 100 µM and the TGI (MALME-3M melanoma) was over 100 µM. It also gave a TGI (HT29 colon) of over 100 µM, a TGI (TK-10 renal) of over 100 µM and a TGI (OVCAR-8 ovarian) of over 100 µM. The TGI (DLD-1 colon) was over 100 µM, the TGI (OVCAR-3 ovarian) was over 100 µM and the TGI (SNB-19 CNS) was over 100 µM. The TGI (SR leukemia) was over 100 µM, the TGI (LXFL 529 NSCLC) was over 100 µM and the TGI (786-0 renal) was over 100 µM. It also gave a TGI (COLO 205 colon) of over 100 µM, a TGI (U251 CNS) of over 100 µM and a TGI (SNB-75 CNS) of over 100 µM. The TGI (EKVX NSCLC) was over 100 µM, the TGI (SK-OV-3 ovarian) was over 100 µM and the TGI (SNB-78 CNS) was over 100 µM. The TGI (HCC-2998 colon) was over 100 µM, the TGI (SF-268 CNS) was over 100 µM and the TGI (CAKI-1 renal) was over 100 µM. It also gave a TGI (KM20L2 colon) of over 100 µM, a TGI (DMS 273 small cell lung) of over 100 µM and a TGI (KM12 colon) of over 100 µM. It also gave a TGI (UACC-257 melanoma) of over 100 µM, a TGI (HL-60(TB) leukemia) of over 100 µM and a TGI (SN12C renal) of over 100 µM. For the same compound, the TGI (NCI-H522 lung) was over 100 µM.
Compound `Cc1ccc(S(=O)(=O)CNC(=S)CCCC(=S)NCS(=O)(=O)c2ccc(C)cc2)cc1` has a TGI (LOX IMVI melanoma) of 39.4 µM, a TGI (OVCAR-5 ovarian) of over 100 µM and a TGI (UACC-62 melanoma) of over 100 µM. The TGI (HCT-15 colon) was over 100 µM, the TGI (HCT-116 colon) was over 100 µM and the TGI (A498 renal) was over 100 µM. It also gave a TGI (NCI-H226 lung) of over 100 µM, a TGI (RPMI-8226 leukemia) of over 100 µM and a TGI (SK-MEL-5 melanoma) of over 100 µM. The TGI (NCI-H460 lung) was over 100 µM, the TGI (XF 498 CNS) was over 100 µM and the TGI (SF-539 CNS) was over 100 µM. For the same compound, the TGI (SF-295 CNS) was over 100 µM, the TGI (UO-31 renal) was over 100 µM and the TGI (NCI-H23 lung) was over 100 µM. For the same compound, the TGI (SW-620 colon) was over 100 µM, the TGI (A549 NSCLC) was over 100 µM and the TGI (RXF 393 renal) was over 100 µM. It also gave a TGI (IGROV1 ovarian) of over 100 µM, a TGI (MALME-3M melanoma) of over 100 µM and a TGI (HT29 colon) of over 100 µM. It also gave a TGI (TK-10 renal) of over 100 µM, a TGI (OVCAR-8 ovarian) of over 100 µM and a TGI (DLD-1 colon) of over 100 µM. It also gave a TGI (OVCAR-3 ovarian) of over 100 µM, a TGI (M19-MEL melanoma) of over 100 µM and a TGI (SNB-19 CNS) of over 100 µM. It also gave a TGI (SR leukemia) of over 100 µM, a TGI (LXFL 529 NSCLC) of over 100 µM and a TGI (786-0 renal) of over 100 µM. It also gave a TGI (COLO 205 colon) of over 100 µM, a TGI (U251 CNS) of over 100 µM and a TGI (SNB-75 CNS) of over 100 µM. It also gave a TGI (CCRF-CEM leukemia) of over 100 µM, a TGI (RXF-631 renal) of over 100 µM and a TGI (EKVX NSCLC) of over 100 µM. It also gave a TGI (SK-OV-3 ovarian) of over 100 µM, a TGI (HOP-92 NSCLC) of 50.3 µM and a TGI (SNB-78 CNS) of over 100 µM. The TGI (HCC-2998 colon) was over 100 µM, the TGI (SF-268 CNS) was over 100 µM and the TGI (MOLT-4 leukemia) was over 100 µM. The TGI (CAKI-1 renal) was over 100 µM, the TGI (KM20L2 colon) was over 100 µM and the TGI (M14 melanoma) was over 100 µM. It also gave a TGI (DMS 273 small cell lung) of over 100 µM, a TGI (KM12 colon) of over 100 µM and a TGI (UACC-257 melanoma) of over 100 µM. It also gave a TGI (HOP-62 NSCLC) of over 100 µM, a TGI (HL-60(TB) leukemia) of over 100 µM and a TGI (SN12C renal) of over 100 µM. For the same compound, the TGI (OVCAR-4 ovarian) was over 100 µM, the TGI (K-562 leukemia) was over 100 µM and the TGI (NCI-H522 lung) was over 100 µM.

Reference: PubChem BioAssay (NCI)
